Assay results from US9309236B2, “PI-kinase inhibitors with broad spectrum anti-infective activity” (The Board of Trustees of the Leland Stanford Junior …, priority 2011, dated 2016).
Where two headings read alike, the source gives them in different places.

Legend:
[1] = tested on: HCV genotype 2a; assay: microbe, parasite or virus in culture; assay type: cell-based; details: luciferase reporter assay, read-out: 2a EC50
Procedure: Anti-HCV assays are performed as described by Cho et al. “Identification of a class of HCV inhibitors directed against the nonstructural protein NS4B.” Sci. Transl.
(§1) The compounds of Table 1 were prepared according to the methods described above.

[2] = Cell toxicity (CC50), Table 3; assay type: cell-based; details: human, Huh7.5 cells
Procedure: as §1

[3] = Hepatitis C virus, Huh7.5, HCV genotype 2a in Huh7.5 cells

SMILES	EC50 [1, 3] [nM]	EC50 ([1]; HCV genotype 2a in Huh7.5 cells) [nM]	CC50 [2] [nM]
COc1cc(C)c(NS(=O)(=O)c2cc(-c3sc(NC(=O)CC4CCCCC4)nc3C)ccc2OC)cn1 [AB4112]	200 to 1000		
COc1ccc(-c2sc(NC3CCCCCC3)nc2C)cc1S(=O)(=O)Nc1cccc(O)c1 [AB4139]	200 to 1000		
COc1ccc(-c2sc(CC3CCCCC3)nc2C)cc1S(=O)(=O)NC1CCNCC1 [AB4240]	> 1000		
COc1ccc(-c2sc(NC3CCCCCC3)nc2C)cc1S(=O)(=O)Nc1ccc(Cl)cc1F [AB4145]	200 to 1000		
COc1ccc(-c2sc(NC(=O)CC3CCCCC3)nc2C)cc1S(=O)(=O)Nc1cccc(O)c1 [AB3826]	< 200		
COc1ccc(NS(=O)(=O)c2cc(-c3sc(NC4CCCCCC4)nc3C)ccc2OC)c(C)c1 [AB4140]	200 to 1000		
COc1ccc(-c2sc(NC(=O)CC3CCCCC3)nc2C)cc1S(=O)(=O)Nc1cccc(O)c1 [AB4114]		200 to 1000	
COc1ccc(-c2sc(NC(=O)CC3CCCC3)nc2C)cc1S(=O)(=O)Nc1cnc(F)cc1C [AB4111]	200 to 1000		
COc1ccc(-c2sc(NCC3CCCCC3)nc2C)cc1S(=O)(=O)NC1CCCNC1 (centres unmarked) [AB4227]	> 1000		
COc1ccc(-c2sc(NC(=O)CC3CCCCC3)nc2C)cc1S(=O)(=O)Nc1ccc(O)cc1 [AB3680]	> 1000		54000
COc1ccc(-c2sc(CC3CCCCC3)nc2C)cc1S(=O)(=O)NC1CCCNC1 (centres unmarked) [AB4241]	> 1000		
COc1ccc(-c2sc(NC(=O)CC3CCCC3)nc2C)cc1S(=O)(=O)Nc1ccc(Cl)cc1F [AB4171]	200 to 1000		
COc1ccc(-c2sc(NCC3CCCCC3)nc2C)cc1S(=O)(=O)Nc1cnc(F)cc1C [AB4225]	200 to 1000		
COc1ccc(-c2sc(NC3CCCCC3)nc2C)cc1S(=O)(=O)NC1CCCNC1 (centres unmarked) [AB4174]	> 1000		
COc1ccc(-c2sc(NC(=O)C3CCCC3)nc2C)cc1S(=O)(=O)NC1CCCNC1 (centres unmarked) [AB4179]	> 1000		
COc1ccc(-c2sc(NC(=O)CC3CCCC3)nc2C)cc1S(=O)(=O)Nc1cccc(O)c1 [AB4109]	200 to 1000		20700
COc1ccc(-c2sc(NC3CCCCCC3)nc2C)cc1S(=O)(=O)Nc1cnc(Cl)c(C)c1 [AB4141]	200 to 1000		
COc1ccc(-c2sc(CC3CCCCC3)nc2C)cc1S(=O)(=O)Nc1ccc(Cl)c(C)c1 [AB4243]	200 to 1000		
COc1ccc(-c2sc(NCC3CCCCC3)nc2C)cc1S(=O)(=O)Nc1cnc(Cl)c(F)c1 [AB4229]	> 1000		
COc1ccc(-c2sc(CC3CCCCC3)nc2C)cc1S(=O)(=O)Nc1ccc(Cl)c(F)c1 [AB4242]	200 to 1000		
COc1ccc(-c2sc(NC(=O)C3CCCC3)nc2C)cc1S(=O)(=O)Nc1ccc(Cl)cc1 [AB4185]	> 1000		
COc1cc(C)c(NS(=O)(=O)c2cc(-c3sc(NC4CCCCC4)nc3C)ccc2OC)cn1 [AB3950]	< 200		12000
COc1ccc(-c2sc(NC(=O)C3CCCC3)nc2C)cc1S(=O)(=O)Nc1ccc(Cl)nc1 [AB4050]	200 to 1000		
COc1ccc(NS(=O)(=O)c2cc(-c3sc(NC(=O)CC4CCCCC4)nc3C)ccc2OC)c(C)c1 [AB4115]	200 to 1000		
COc1cc(C)c(NS(=O)(=O)c2cc(-c3sc(NC(C)C)nc3C)ccc2OC)cn1 [AB3979]	200 to 1000		

SMILES	EC50 [1, 3] [nM]	EC50 ([1]; HCV genotype 2a in Huh7.5 cells) [nM]	CC50 [2] [nM]
COc1ccc(NS(=O)(=O)c2cc(-c3sc(NC4CCCCC4)nc3C)ccc2OC)cn1 [AB3957]	200 to 1000		9000
COc1ccccc1NS(=O)(=O)c1cc(-c2sc(NC3CCCCC3)nc2C)ccc1OC [AB4025]	200 to 1000		13000
COc1ccc(-c2sc(NC(=O)C3CCCC3)nc2C)cc1S(=O)(=O)NC1CCNCC1 [AB4178]	> 1000		
COc1cc(C)c(NS(=O)(=O)c2cc(-c3sc(NC(=O)CC4CCCC4)nc3C)ccc2OC)cn1 [AB4107]	200 to 1000		
COc1ccc(-c2sc(NC(C)C)nc2C)cc1S(=O)(=O)Nc1cnc(Cl)c(C)c1 [AB3977]	200 to 1000		
COc1ccc(-c2sc(NC(=O)CC3CCCCC3)nc2C)cc1S(=O)(=O)Nc1cnc(Cl)c(C)c1 [AB4113]	200 to 1000		
COc1ccc(-c2sc(NCC3CCCCC3)nc2C)cc1S(=O)(=O)NC1CCNCC1 [AB4237]	> 1000		
COc1ccc(-c2sc(NC(=O)C3CCCC3)nc2C)cc1S(=O)(=O)Nc1cnc(OC)c(C)c1 [AB3864]	200 to 1000		
COc1ccc(-c2sc(NCC3CCCCC3)nc2C)cc1S(=O)(=O)Nc1cnc(Cl)c(C)c1 [AB4226]	200 to 1000		
COc1ccc(-c2sc(NC3CCCCC3)nc2C)cc1S(=O)(=O)Nc1cnc(OC)c(C)c1 [AB3948]	200 to 1000		
COc1ccc(-c2sc(NC3CCCCC3)nc2C)cc1S(=O)(=O)Nc1ccc(C)cc1 [AB4106]	200 to 1000		58500
COc1ccc(-c2sc(NC3CCCCC3)nc2C)cc1S(=O)(=O)Nc1cnc(Cl)c(C)c1 [AB3946]	200 to 1000		
COc1ccc(-c2sc(NC(=O)CC3CCCCC3)nc2C)cc1S(=O)(=O)Nc1cnc(F)cc1C [AB4116]	200 to 1000		
COc1ccc(-c2sc(NC(=O)CC3CCCC3)nc2C)cc1S(=O)(=O)Nc1cnc(Cl)c(C)c1 [AB4108]	200 to 1000		
COc1ccccc1NS(=O)(=O)c1cc(-c2sc(NC(=O)C3CCCC3)nc2C)ccc1OC [AB4051]	200 to 1000		
COc1ccc(NS(=O)(=O)c2cc(-c3sc(NC(=O)CC4CCCC4)nc3C)ccc2OC)c(C)c1 [AB4110]	200 to 1000		
COc1ccc(-c2sc(NC3CCCCC3)nc2C)cc1S(=O)(=O)Nc1ccc(Cl)nc1 [AB4024]	200 to 1000		
COc1ccc(-c2sc(NC3CCCCC3)nc2C)cc1S(=O)(=O)NC1CCNCC1 [AB4173]	> 1000		
COc1ccc(-c2sc(NC3CCCCC3)nc2C)cc1S(=O)(=O)Nc1cnc(F)cc1C [AB4052]	< 200		
COc1ccc(NS(=O)(=O)c2cc(-c3sc(NC4CCCCC4)nc3C)ccc2OC)c(OC)n1 [AB4053]	200 to 1000		
COc1ccc(-c2sc(NC(=O)CCC3CCCC3)nc2C)cc1S(=O)(=O)Nc1cccc(O)c1 [AB3837]	200 to 1000		22000
COc1ccc(-c2sc(NCC3CCCCC3)nc2C)cc1S(=O)(=O)NCC1CCNCC1 [AB4228]	> 1000		
COc1ccc(NS(=O)(=O)c2cc(-c3sc(NC(=O)C4CCCC4)nc3C)ccc2OC)c(OC)n1 [AB4054]	200 to 1000		
COc1ccc(-c2sc(CC3CCCCC3)nc2C)cc1S(=O)(=O)Nc1cnc(Cl)c(C)c1 [AB4239]	200 to 1000		
